Source: patent US10308700B2, “GLP-1 derivatives” (Novo Nordisk A/S, priority 2011, dated 2019)

Molecular target: T1, human GLP-1 receptor (Homo sapiens, UniProt P43220)
T1 construct: expressed in transfected cells; host or cells: BHK467-12A (tk-ts13), baby hamster kidney; purified plasma membranes
Experiment: In vitro potency (CRE luciferase; whole cells)
Assay type: cell-based
Description: The purpose of this example is to test the activity, or potency, of the GLP-1 derivatives in vitro. The in vitro potency is the measure of human GLP-1 receptor activation in a whole cell assay.
In vitro potency was determined by measuring the response of human GLP-1 receptor in a reporter gene assay. The assay was performed in a stably transfected BHK cell line that expresses the human GLP-1 receptor and contains the DNA for the cAMP response element (CRE) coupled to a promoter and the gene for firefly luciferase (CRE luciferase). When the human GLP-1 receptor was activated it results in the production of cAMP, which in turn results in the luciferase protein being expressed. When assay incubation was completed the luciferase substrate (luciferin) was added and the enzyme converts luciferin to oxyluciferin and produces bioluminescence. The luminescence was measured and was the readout for the assay.
The cells were cultured at 5% CO2 in cell culture medium. They were aliquoted and stored in liquid nitrogen. Before each assay an aliquot was taken up and washed twice in PBS before being suspended at the desired concentration in the assay specific buffer.
• 1) Cell stocks were thawed in a 37° C. water bath. • 2) Cells were washed three times in PBS. • 3) The cells were counted and adjusted to 5×10^3 cells/50 μl (1×10^5 cells/ml) in assay medium. […]

T1 sequence (P43220 24-463): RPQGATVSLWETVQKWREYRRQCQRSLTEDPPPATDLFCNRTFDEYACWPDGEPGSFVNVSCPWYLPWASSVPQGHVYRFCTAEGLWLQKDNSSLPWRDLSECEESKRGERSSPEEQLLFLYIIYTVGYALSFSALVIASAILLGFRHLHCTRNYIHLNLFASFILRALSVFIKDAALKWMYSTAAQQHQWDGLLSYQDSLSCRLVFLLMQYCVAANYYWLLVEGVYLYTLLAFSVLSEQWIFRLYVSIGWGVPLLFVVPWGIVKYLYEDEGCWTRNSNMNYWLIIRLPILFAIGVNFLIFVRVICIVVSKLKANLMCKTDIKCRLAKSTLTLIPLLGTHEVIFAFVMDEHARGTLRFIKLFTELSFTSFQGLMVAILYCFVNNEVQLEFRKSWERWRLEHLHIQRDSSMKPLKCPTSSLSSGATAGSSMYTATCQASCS

## CC[C@H](C)[C@H](NC(=O)[C@H](Cc1ccccc1)NC(=O)[C@H](CCC(=O)O)NC(=O)[C@H](CCCCNC(=O)[C@@H](N)CCCCNC(=O)[C@H](CO)NC(=O)CNC(=O)[C@H](CO)NC(=O)CC[C@H](NC(=O)CCCCCCCCCCCOc1ccc(C(=O)O)cc1)C(=O)O)NC(=O)[C@H](C)NC(=O)[C@H](C)NC(=O)[C@H](CCC(N)=O)NC(=O)CNC(=O)[C@H](CCC(=O)O)NC(=O)[C@H](CC(C)C)NC(=O)[C@H](Cc1ccc(O)cc1)NC(=O)[C@H](CO)NC(=O)[C@H](CO)NC(=O)[C@@H](NC(=O)[C@H](CC(=O)O)NC(=O)[C@H](CO)NC(=O)[C@@H](NC(=O)[C@H](Cc1ccccc1)NC(=O)[C@@H](NC(=O)CNC(=O)[C@H](CCC(=O)O)NC(=O)C(C)(C)NC(=O)[C@@H](N)Cc1c[nH]cn1)[C@@H](C)O)[C@@H](C)O)C(C)C)C(=O)N[C@@H](C)C(=O)N[C@@H](Cc1c[nH]c2ccccc12)C(=O)N[C@@H](CC(C)C)C(=O)N[C@H](C(=O)N[C@@H](CCCNC(=N)N)C(=O)NCC(=O)N[C@@H](CCCNC(=N)N)C(=O)N[C@@H](CCCCNC(=O)[C@@H](N)CCCCNC(=O)[C@H](CO)NC(=O)CNC(=O)[C@H](CO)NC(=O)CC[C@H](NC(=O)CCCCCCCCCCCOc1ccc(C(=O)O)cc1)C(=O)O)C(=O)O)C(C)C [Example 29]
  EC50: 5 pM
